# Results: ChEMBL document CHEMBL1201862, “PubChem BioAssay data set” (2004)
#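 Exposure lasted 48 hours, with cells grown in 96-well plates and compounds tested at five concentrations. GI50: concentration for 50% inhibition of growth.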 The source made the active and inactive calls. No stated cut-off is given here; in the data, active = GI50 up to about 1.1 µM and inactive = higher.
# Tests used:
# Experiment in all cases: DTP human tumour cell line panel, 48 h
# COLO 205 = system: COLO 205
# K562 = system: K562
# NCI-H23 = system: NCI-H23
# SK-MEL-5 = system: SK-MEL-5
# CCRF-CEM = system: CCRF-CEM
# A549 = system: A549
# NCI-H460 = system: NCI-H460
# HCT-15 = system: HCT-15
# CAKI-1 = system: CAKI-1
# SF-539 = system: SF-539
# TK-10 = system: TK-10
# HCT-116 = system: HCT-116
# SK-OV-3 = system: SK-OV-3
# MOLT-4 = system: MOLT-4
# KM12 = system: KM12
# RXF 393 = system: RXF 393
SMILES,GI50 (COLO 205),GI50 (K562),GI50 (NCI-H23),GI50 (SK-MEL-5),GI50 (CCRF-CEM),GI50 (A549),GI50 (NCI-H460),GI50 (HCT-15) [µM],GI50 (CAKI-1),GI50 (SF-539),GI50 (TK-10),GI50 (HCT-116),GI50 (SK-OV-3),GI50 (MOLT-4),GI50 (KM12),GI50 (RXF 393)
c1c[nH]c(Cc2nc(Cc3c[nH]cn3)c[nH]2)n1,5.37 µM (inactive),3.37 µM (inactive),34.8 µM (inactive),20.7 µM (inactive),5.06 µM (inactive),3.96 µM (inactive),24 µM (inactive),4.58,27.9 µM (inactive),27.2 µM (inactive),67.5 µM (inactive),29.5 µM (inactive),9.29 µM (inactive),3.48 µM (inactive),7.64 µM (inactive),
COc1ccc(O)c2c(=O)ccccc12,> 100 µM (inactive),> 100 µM (inactive),> 100 µM (inactive),> 100 µM (inactive),> 100 µM (inactive),> 100 µM (inactive),> 100 µM (inactive),> 100,,> 100 µM (inactive),6.32 µM (inactive),> 100 µM (inactive),> 100 µM (inactive),> 100 µM (inactive),> 100 µM (inactive),4.79 µM (inactive)
CC1(C)COC(C2(C)C(=O)C=C(c3ccccc3)c3ccccc32)=N1 (stereo unspecified),42.6 µM (inactive),33.3 µM (inactive),47.1 µM (inactive),> 100 µM (inactive),35.5 µM (inactive),33.3 µM (inactive),36.9 µM (inactive),27.4,42.6 µM (inactive),43.6 µM (inactive),93.8 µM (inactive),44.1 µM (inactive),22.4 µM (inactive),25.8 µM (inactive),47.3 µM (inactive),55.3 µM (inactive)
COc1cc(/C=C\c2ccncc2)cc(OC)c1OC,42.1 µM (inactive),27.3 µM (inactive),,57.5 µM (inactive),> 100 µM (inactive),69 µM (inactive),46.6 µM (inactive),55.7,80 µM (inactive),> 100 µM (inactive),> 100 µM (inactive),99.1 µM (inactive),,59.4 µM (inactive),48.1 µM (inactive),> 100 µM (inactive)
O=C1CCNC/C1=C\c1ccccc1,40.6 µM (inactive),23.1 µM (inactive),18.2 µM (inactive),20.3 µM (inactive),,22.2 µM (inactive),30.9 µM (inactive),17.1,44.8 µM (inactive),17.4 µM (inactive),26.1 µM (inactive),17.9 µM (inactive),55 µM (inactive),24.7 µM (inactive),14.8 µM (inactive),
O=C1C2Nc3ccccc3SC2C(=O)N1c1ccc(Br)cc1 (stereo unspecified),55.5 µM (inactive),21.9 µM (inactive),36.5 µM (inactive),16.2 µM (inactive),> 10 µM (inactive),31.6 µM (inactive),47 µM (inactive),78.7,,26.4 µM (inactive),28.8 µM (inactive),,15.6 µM (inactive),25.4 µM (inactive),28.2 µM (inactive),18.2 µM (inactive)
CC(C)OP(=O)(OC(C)C)/C(Cl)=N/Nc1ccc([N+](=O)[O-])cc1,> 100 µM (inactive),38.7 µM (inactive),> 100 µM (inactive),> 100 µM (inactive),59 µM (inactive),> 100 µM (inactive),> 100 µM (inactive),> 100,97.3 µM (inactive),> 100 µM (inactive),> 100 µM (inactive),> 100 µM (inactive),,53.6 µM (inactive),> 100 µM (inactive),
CCO/S(=N/S(=O)(=O)c1ccccc1)c1ccccc1[N+](=O)[O-] (stereo unspecified),> 100 µM (inactive),> 100 µM (inactive),> 100 µM (inactive),> 100 µM (inactive),80.2 µM (inactive),> 100 µM (inactive),> 100 µM (inactive),> 100,> 100 µM (inactive),> 100 µM (inactive),,,> 100 µM (inactive),> 100 µM (inactive),> 100 µM (inactive),
COc1ccc(/C=N/N=C(\N)NO)c(OC)c1,49.7 µM (inactive),15.7 µM (inactive),46.7 µM (inactive),59.8 µM (inactive),79.8 µM (inactive),31.8 µM (inactive),,26.9,19.2 µM (inactive),23.3 µM (inactive),,52 µM (inactive),75.2 µM (inactive),77.6 µM (inactive),30.3 µM (inactive),54 µM (inactive)
NC(=S)NNc1c([N+](=O)[O-])cnn(-c2ccccc2)c1=O,13.1 µM (inactive),4.36 µM (inactive),19 µM (inactive),18.7 µM (inactive),,23 µM (inactive),17.9 µM (inactive),17.3,19.6 µM (inactive),18.8 µM (inactive),24 µM (inactive),10.2 µM (inactive),21.6 µM (inactive),12.6 µM (inactive),14.7 µM (inactive),18.5 µM (inactive)
CCN(CC)CC(C(=O)Nc1c(C)cccc1C)/C(C)=N\NC(=S)NN (stereo unspecified),> 100 µM (inactive),> 100 µM (inactive),> 100 µM (inactive),> 100 µM (inactive),> 100 µM (inactive),> 100 µM (inactive),> 100 µM (inactive),,,> 100 µM (inactive),> 100 µM (inactive),> 100 µM (inactive),> 100 µM (inactive),> 100 µM (inactive),> 100 µM (inactive),> 100 µM (inactive)
Clc1cc2nc[nH]c2cc1Cl,> 100 µM (inactive),> 100 µM (inactive),> 100 µM (inactive),,> 100 µM (inactive),> 100 µM (inactive),> 100 µM (inactive),> 100,> 100 µM (inactive),> 100 µM (inactive),> 100 µM (inactive),,> 100 µM (inactive),> 100 µM (inactive),71.8 µM (inactive),
COc1cc2c[n+]3ccc4cc(OC)c(OC)cc4c3cc2cc1O,,> 100 µM (inactive),> 100 µM (inactive),> 100 µM (inactive),> 100 µM (inactive),> 100 µM (inactive),> 100 µM (inactive),> 100,,> 100 µM (inactive),> 100 µM (inactive),> 100 µM (inactive),> 100 µM (inactive),> 100 µM (inactive),> 100 µM (inactive),> 100 µM (inactive)
CCOC(=O)NC(=O)c1cn(CCCOC(=O)NCCCCCCNC(=O)OCCCn2c(=O)c(C(=O)NC(=O)OCC)cn(C)c2=O)c(=O)n(C)c1=O,> 100 µM (inactive),> 100 µM (inactive),> 100 µM (inactive),,> 100 µM (inactive),> 100 µM (inactive),> 100 µM (inactive),> 100,> 100 µM (inactive),,88.7 µM (inactive),> 100 µM (inactive),> 100 µM (inactive),> 100 µM (inactive),> 100 µM (inactive),24.8 µM (inactive)
Cc1ccc(NC(=O)CC2Sc3ccccc3NC2=O)c(C)c1 (stereo unspecified),8.55 µM (inactive),4.01 µM (inactive),16.2 µM (inactive),6.97 µM (inactive),10.7 µM (inactive),16 µM (inactive),11.4 µM (inactive),,21.5 µM (inactive),14 µM (inactive),20.2 µM (inactive),10.3 µM (inactive),15.5 µM (inactive),6.71 µM (inactive),4.88 µM (inactive),14 µM (inactive)
Nc1ncnc2c1ncn2C1(CO)OC(CO)C(O)C1O (stereo unspecified),> 100 µM (inactive),,> 100 µM (inactive),> 100 µM (inactive),> 100 µM (inactive),> 100 µM (inactive),> 100 µM (inactive),> 100,> 100 µM (inactive),,> 100 µM (inactive),> 100 µM (inactive),> 100 µM (inactive),> 100 µM (inactive),> 100 µM (inactive),> 100 µM (inactive)
COc1cc2c(cc1OC)-c1c(cc(OC)c(OC)c1OC)C2=O,> 100 µM (inactive),> 100 µM (inactive),> 100 µM (inactive),77.1 µM (inactive),81.7 µM (inactive),> 100 µM (inactive),> 100 µM (inactive),> 100,,> 100 µM (inactive),> 100 µM (inactive),> 100 µM (inactive),93.3 µM (inactive),> 100 µM (inactive),> 100 µM (inactive),> 100 µM (inactive)
Cc1cc(C(=O)N2CCN(Cc3ccccc3)CC2)c(C)o1,,> 100 µM (inactive),> 100 µM (inactive),> 100 µM (inactive),> 100 µM (inactive),> 100 µM (inactive),> 100 µM (inactive),> 100,> 100 µM (inactive),> 100 µM (inactive),> 100 µM (inactive),> 100 µM (inactive),> 100 µM (inactive),> 100 µM (inactive),> 100 µM (inactive),
COC(=O)C1CSC(c2csc(CCN)n2)=N1 (stereo unspecified),> 100 µM (inactive),> 100 µM (inactive),> 100 µM (inactive),> 100 µM (inactive),> 100 µM (inactive),> 100 µM (inactive),> 100 µM (inactive),> 100,> 100 µM (inactive),,> 100 µM (inactive),> 100 µM (inactive),> 100 µM (inactive),> 100 µM (inactive),> 100 µM (inactive),> 100 µM (inactive)
COc1cc(O)c2c(c1)O[C@@H]1OCC[C@H]21,> 100 µM (inactive),> 100 µM (inactive),> 100 µM (inactive),> 100 µM (inactive),> 100 µM (inactive),> 100 µM (inactive),> 100 µM (inactive),> 100,,> 100 µM (inactive),> 100 µM (inactive),> 100 µM (inactive),> 100 µM (inactive),> 100 µM (inactive),> 100 µM (inactive),
